Source: PubChem BioAssay AID1259407 (Chemical Carcinogenesis Research Information System (CCRIS), 2018)
The source made the active and inactive calls. The rule behind the calls is not given here.

Tested on: CCRIS mutagenicity, Ames/micronucleus/aberration tests
Experiment: CCRIS mutagenicity studies
Conditions: Test System: AMES SALMONELLA TYPHIMURIUM
[1] = Strain/Indicator: TA98, Metabolic Activation: NONE, Method: STANDARD PLATE
[2] = Strain/Indicator: TA100, Metabolic Activation: NONE, Method: STANDARD PLATE

Measured: mutagenic call

C=C(C)C(=O)OCCCCC
inactive: [1] inactive; negative | Strain/Indicator: TA98, Metabolic Activation: RAT, LIVER, S-9, AROCLOR 1254, Method: STANDARD PLATE inactive; negative | Strain/Indicator: TA98, Metabolic Activation: RAT, LIVER, S-9, SODIUM PHENOBARBITAL, Method: STANDARD PLATE inactive; negative | [2] inactive; negative | Strain/Indicator: TA100, Metabolic Activation: RAT, LIVER, S-9, AROCLOR 1254, Method: STANDARD PLATE inactive; negative | Strain/Indicator: TA100, Metabolic Activation: RAT, LIVER, S-9, SODIUM PHENOBARBITAL, Method: STANDARD PLATE inactive; negative | Strain/Indicator: TA1535, Metabolic Activation: NONE, Method: STANDARD PLATE inactive; negative | Strain/Indicator: TA1535, Metabolic Activation: RAT, LIVER, S-9, AROCLOR 1254, Method: STANDARD PLATE inactive; negative | Strain/Indicator: TA1535, Metabolic Activation: RAT, LIVER, S-9, SODIUM PHENOBARBITAL, Method: STANDARD PLATE inactive; negative | Strain/Indicator: TA1537, Metabolic Activation: NONE, Method: STANDARD PLATE inactive; negative | Strain/Indicator: TA1537, Metabolic Activation: RAT, LIVER, S-9, AROCLOR 1254, Method: STANDARD PLATE inactive; negative | Strain/Indicator: TA1537, Metabolic Activation: RAT, LIVER, S-9, SODIUM PHENOBARBITAL, Method: STANDARD PLATE inactive; negative | Strain/Indicator: TA1538, Metabolic Activation: NONE, Method: STANDARD PLATE inactive; negative | Strain/Indicator: TA1538, Metabolic Activation: RAT, LIVER, S-9, AROCLOR 1254, Method: STANDARD PLATE inactive; negative | Strain/Indicator: TA1538, Metabolic Activation: RAT, LIVER, S-9, SODIUM PHENOBARBITAL, Method: STANDARD PLATE inactive; negative

[Cl][Pt-2]([Cl])([Cl])([Cl])([Cl])[Cl]
active: Strain/Indicator: TA97A, Metabolic Activation: RAT, LIVER, S-9, PHENOBARBITAL AND 5,6-BENZOFLAVONE, Method: STANDARD PLATE active; positive | Strain/Indicator: TA97A, Metabolic Activation: RAT, LIVER, S-9, PHENOBARBITAL AND BETA-NAPHTHOFLAVONE, Method: STANDARD PLATE active; positive | [1] active; positive | Strain/Indicator: TA98, Metabolic Activation: RAT, LIVER, S-9, AROCLOR 1254, Method: PREINCUBATION active; positive | Strain/Indicator: TA98, Metabolic Activation: RAT, LIVER, S-9, PHENOBARBITAL AND 5,6-BENZOFLAVONE, Method: STANDARD PLATE active; positive | Strain/Indicator: TA98, Metabolic Activation: RAT, LIVER, S-9, PHENOBARBITAL AND BETA-NAPHTHOFLAVONE, Method: STANDARD PLATE active; positive | [2] active; positive | Strain/Indicator: TA100, Metabolic Activation: RAT, LIVER, S-9, PHENOBARBITAL AND 5,6-BENZOFLAVONE, Method: STANDARD PLATE active; positive | Strain/Indicator: TA100, Metabolic Activation: RAT, LIVER, S-9, PHENOBARBITAL AND BETA-NAPHTHOFLAVONE, Method: STANDARD PLATE active; positive | Strain/Indicator: TA102, Metabolic Activation: NONE, Method: STANDARD PLATE active; positive | Strain/Indicator: TA102, Metabolic Activation: RAT, LIVER, S-9, PHENOBARBITAL AND 5,6-BENZOFLAVONE, Method: STANDARD PLATE active; positive | Strain/Indicator: TA102, Metabolic Activation: RAT, LIVER, S-9, PHENOBARBITAL AND BETA-NAPHTHOFLAVONE, Method: STANDARD PLATE active; positive
inactive: Strain/Indicator: TA98, Metabolic Activation: NONE, Method: PREINCUBATION inactive; negative | Strain/Indicator: TA100, Metabolic Activation: NONE, Method: PREINCUBATION inactive; negative | Strain/Indicator: TA100, Metabolic Activation: RAT, LIVER, S-9, AROCLOR 1254, Method: PREINCUBATION inactive; negative
